Results from patent US10357494B2, “Combination therapy comprising varlitinib and an anticancer agent” (ASLAN Pharmaceuticals PTE LTD, priority 2015, dated 2019).

Key:
Assay type in all cases: in vivo, human
gastric cancer = assay: Treatment of gastric cancer patients with Varlitinib 400 mg bi-daily and cisplatin/capecitabine chemotherapy; conditions: for tolerability / dose limiting toxicity: 400 mg bi-daily with cisplatin and capecitabine; for dose limiting toxicity: first two treatment cycles
Description: Example 1 Treatment of Gastric Cancer with Valitinib 400 mg Bi-Daily Orally and Cisplatin/Capecitabine Combination Chemotherapy
person one with Her2 positive (3+) stage IV gastric cancer had progressive disease in the form of 2 target lesions following: • first line treatment with cisplatin and Xeloda® (capecitabine)—4 cycles, • second line treatment with the experimental drug TDM1 (an antibody drug conjugate comprising Herceptin®)—9 cycles, • third line treatment with experimental drug LJM716 (a Her3 monoclonal antibody) and Herceptin®.
After treatment cycle 4 with ASLAN001 400 mg bi-daily, cisplatin and capecitabine, see FIG. 1. […] The cisplatin and capecitabine regime was cisplatin 80 mg/m^2 IV infusion and capecitabine 1000 mg/m^2 orally twice daily for 14 days every 3 weeks.
person two with gastric cancer (4 target lesions) was given first line treatment of Valitinib 400 mg bi-daily, cisplatin and capecitabine. […] The cisplatin and capecitabine regime was cisplatin 80 mg/m^2 IV infusion and capecitabine 1000 mg/m^2 orally twice daily for 14 days every 3 weeks.

[1] = test system: stage IV cholangiocarcinoma; assay: Treatment of cholangiocarcinoma patients with Varlitinib bi-daily and cisplatin/capecitabine chemotherapy; conditions: person
Description: Example 2 Treatment of Cholangiocarcinoma with Varlitinib 400 mg Bi-Daily Orally and Cisplatin/Capecitabine Combination Chemotherapy A person with stage IV cholangiocarcinoma (3 lesions) had progressive disease following treatment with: • radiotherapy, and • gemcitabine (Gemzar®) and cisplatin—6 months. […] The cisplatin and capecitabine regime was cisplatin 80 mg/m^2 IV infusion and capecitabine 1000 mg/m^2 orally twice daily for 14 days every 3 weeks. Example 3 Treatment of Cholangiocarcinoma with Varlitinib 500 mg Bi-Daily Orally and Cisplatin/Capecitabine Combination Chemotherapy A person with stage IV cholangiocarcinoma had progressive disease following treatment with radiotherapy and bi-weekly 5-FU. […] The cisplatin and capecitabine regime was cisplatin 80 mg/m^2 IV infusion and capecitabine 1000 mg/m^2 orally twice daily for 14 days every 3 weeks.

[2] = test system: stage IV sigmoid colorectal cancer; assay: Treatment of stage IV sigmoid colorectal cancer patient with Varlitinib 300 mg BID and oxaliplatin/capecitabine; conditions: person, stage IV sigmoid colorectal cancer with metastasis, 300 mg bi-daily
Description: Example 4 Treatment of Stage IV Sigmoid Coloreactal Cancer with Varlitinib 300 mg BID Oxaliplatin/Capecitabine
A person with stage IV sigmoid colorectal cancer with metastasis to liver, lungs and lymph node.
The prior treatments included: • Anterior resection with right hemi-hepatetomy and cholecystecomy • XELOX (PD), XELIRI (PR), Irrinotecan & Cetuximab (SD) • Xeloda and Avastin (SD), Bayer PTEFb-CDK9 inhibitor (PD)
The treatment per 3 weeks cycle was 300 mg ASLAN001 orally bi-daily, oxaliplatin 130 mg/m^2 IV infusion (Day 1) and capecitabine 850 mg/m^2 (Day 1-14) until Cycle 6, then from Cycle 7+ onwards, Varlitinib 300 mg b-daily as monotherapy per 4 week cycle.

[3] = test system: stage IV Cholangiocarcinoma and metastatic lymphadenopathy; assay: Treatment of stage IV cholangiocarcinoma and metastatic lymphadenopathy patient with Varlitinib and cisplatin/5FU; conditions: person, first line, 300 mg BID Varlitinib combined with Cis/5-FU
Description: Example 5 Treatment of Stage IV Cholangiocarcinoma and Metastatic Lymphadenopathy with Varlitinib 400 mg Bi-Daily Orally and Cisplatin/5FU Combination Chemotherapy A person with stage IV Cholangiocarcinoma and metastatic lymphadenopathy diagnosed in January 2016, no prior surgery or treatment was give first line treatment of 300 mg BID Varlitinib combined with Cis/5-FU, 28-day cycle.

[4] = test system: intrahepatic bile duct cholangiocarcinoma; assay: Treatment of intrahepatic bile duct cholangiocarcinoma patient with Varlitinib and FOLFOX; conditions: person, progressive on gemcitabine and cisplatin; 9 cycles Varlitinib 400 mg reduced to 300 mg BID and FOLFOX, then 7 cycles monotherapy
Description: Example 6 Treatment of the Intrahepatic Bile Duct Cholangiocarcinoma with 300 mg Valitinib and FOLFOX A person diagnosed in 2013 with intrahepatic bile duct cholangiocarcinoma, had received surgery in the form of left hemihepatectomy in 15 Jul. 2013. Prior therapies were gemcitabine and cisplatin 14 Aug. 2013 with last dose 8 Jan. 2014 and repeated between 13 May 2015 and 1 Jul. 2015. With this treatment the status was progressive disease. The patient was give 9 cycles combination Varlitinib 400 mg reduced to 300 mg BID and FOLFOX. This was followed with 7 cycles of Valitinib monotherapy.

bladder cancer = assay: Treatment of bladder cancer patient with 300 mg Valitinib and FOLFOX; conditions: person
Description: Example 7 Treatment of the Bladder Cancer with 300 mg Valitinib and FOLFOX A person was diagnosed with bladder cancer 2014. They received radical cystoprostatetomy and prior therapy with Cisplatin and radiotherapy (pelvis) on 20 Feb. 2014; gemcitabline and cisplatin on 10 Apr. 2015 with last dose on 8 May 2015. The patient received 9 cycles of 300 mg Valitinib BID and FOLFOX and 5 cycles of Varlitinib 300 mg monotherapy. The Valitinib in the combination therapy interruption from 21 to 27 Sep. 2015; 21 Oct. to 23 Oct.

tumour = assay: Clinical data summary as of June 2016, Varlitinib combination arms
Source text: As of June 2016 the following clinical data summary: […]

[5] = test system: gastric tumours co-expressing EGFR and HER2 or HER2 amplified; assay: Phase I monotherapy trial in gastric cancer patients, tumour biopsies analysed by immunohistochemistry; conditions: monotherapy 500 mg orally BID for 28 days, 23 patients; biopsies before and after treatment
Description: (R)—N4-[3-Chloro-4-(thiazol-2-ylmethoxy)-phenyl]-N6-(4-methyl-4,5,-dihydro-oxazol-2-yl)-quinazoline-4,6-diamine (Varlitinib Example 52 disclosed in WO2005/016346), is a small-molecule pan-HER inhibitor. It has been tested as a monotherapy in phase I clinical trials of gastric cancer patients. 23 patients, who had previously failed on one or more rounds of chemotherapy, and where eligible for trastuzumab, each received 500 mg of Varlitinib orally twice daily (BID) as monotherapy for 28 days. Tumour biopsies taken before and after treatment were analysed using immunohistochemistry.

[6] = 9 cycles 300 mg BID and FOLFOX, then 5 cycles 300 mg monotherapy

SMILES: C[C@@H]1COC(Nc2ccc3ncnc(Nc4ccc(OCc5nccs5)c(Cl)c4)c3c2)=N1 [Varlitinib, (R)—N4-[3-Chloro-4-(thiazol-2-ylmethoxy)-phenyl]-N6-(4-methyl-4,5,-dihydro-oxazol-2-yl)-quinazoline-4,6-diamine]
- response after treatment cycle 4 (gastric cancer; person one, Her2 positive (3+) stage IV gastric cancer, progressive after three prior lines, Varlitinib 400 mg bi-daily, cisplatin and capecitabine): 29%
- tolerability (gastric cancer; person one, gastric cancer): well tolerated
- dose limiting toxicity (gastric cancer; person one, gastric cancer): No dose limiting toxicity was observed
- disease status category (gastric cancer; person one, stage IV gastric cancer, after cycle 4 of Varlitinib 400 mg bi-daily, cisplatin and capecitabine): stable disease
- response after cycle 4 (gastric cancer; person two, gastric cancer (4 target lesions), first line, 400 mg bi-daily, cisplatin and capecitabine): 41%
- tolerability (gastric cancer; person two, gastric cancer): well tolerated
- disease status designation (gastric cancer; person two, gastric cancer, due to development of a new bone lesion): progression disease
- dose limiting toxicity (gastric cancer; person two, gastric cancer): No dose limiting toxicity was observed
- tolerability ([1]; cholangiocarcinoma, 400 mg bi-daily with cisplatin and capecitabine): well tolerated
- dose limiting toxicity ([1]; cholangiocarcinoma, first two treatment cycles, 400 mg bi-daily with cisplatin and capecitabine): No dose limiting toxicity was observed
- response after treatment cycle 2 ([1]; stage IV cholangiocarcinoma, progressive after radiotherapy and 5-FU, Varlitinib orally 500 mg bi-daily, cisplatin and capecitabine): 4%
- response after 2 cycles (figure) [2]: 335
- response category after 2 cycles [2]: partial response
- current disease status [3]: stable disease
- tumor reduction at first response (C2) ([3]; 28-day cycle, 5 Mar. 2016): 16%
- tumor reduction at last response (C4) ([3]; 28-day cycle, 17 May 2016): 13%
- patient status [4]: partial response
- adverse event leading to treatment interruption (bladder cancer; 300 mg BID and FOLFOX combination therapy): G2 weight loss
- best % tumour change (bladder cancer; [6]): −4%
- patient status (bladder cancer; [6]): stable disease
- Best response (% change) (tumour; Combo with cis/5-FU, 300 mg Varlitinib, 6 patients): −21%
- Best response (% change) (tumour; Combo with cis/5-FU, 400 mg Varlitinib, 7 patients): −47%
- Best response (% change) (tumour; Combo with cis/cap, 400 mg Varlitinib, 6 patients): −87%
- Best response (% change) (tumour; Combo with cis/cap, 500 mg Varlitinib, 4 patients): −4%
- signs of clinical activity: cell survival and proliferation [5]: reduction in cell survival and cell proliferation
- signs of clinical activity: signalling pathways [5]: downregulation of signalling pathways responsible for cell proliferation
